By IC50 is commonly meant the concentration that inhibits the measured activity by half.

Results on 25 molecules are retold here after EP4782453A1 (Beyang Therapeutics Co., Ltd., priority 2023, dated 2025).

The target in one assay is T1, Menin-MLL (Homo sapiens, UniProt O00255).
T1 construct: His-Menin (M1-L615 end); purchased BIORTUS BP9210
T1 sequence (O00255 1-615 isoform O00255-1): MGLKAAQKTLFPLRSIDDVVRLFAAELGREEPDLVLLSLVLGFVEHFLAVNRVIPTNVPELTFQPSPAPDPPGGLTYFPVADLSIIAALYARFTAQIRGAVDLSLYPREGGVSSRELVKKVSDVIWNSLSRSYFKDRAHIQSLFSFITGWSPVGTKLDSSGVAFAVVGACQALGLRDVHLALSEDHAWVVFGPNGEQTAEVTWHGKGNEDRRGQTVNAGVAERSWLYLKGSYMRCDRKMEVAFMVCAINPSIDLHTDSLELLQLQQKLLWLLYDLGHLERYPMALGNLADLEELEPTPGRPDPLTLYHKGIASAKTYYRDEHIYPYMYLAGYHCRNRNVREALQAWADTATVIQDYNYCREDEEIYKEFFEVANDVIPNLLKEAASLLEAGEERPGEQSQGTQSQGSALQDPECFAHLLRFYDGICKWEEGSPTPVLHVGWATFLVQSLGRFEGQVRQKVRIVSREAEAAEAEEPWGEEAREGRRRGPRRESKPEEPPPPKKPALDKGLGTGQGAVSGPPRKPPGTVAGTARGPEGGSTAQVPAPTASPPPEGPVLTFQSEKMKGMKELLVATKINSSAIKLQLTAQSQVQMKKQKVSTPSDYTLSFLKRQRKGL
In words: Inhibitory activity against Menin-MLL binding (fluorescence polarization). Conditions: Menin-MLL IC50, fluorescence polarization; 150 nM His-Menin, 15 nM FITC-MLL; 25°C for 60 min. The method, boiled down:
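Fluorescence polarization competition: compound and 150 nM His-tagged menin (residues M1-L615) sit 15 min at 25 °C in pH 7.5 HEPES buffer with NaCl, DTT and BSA; 15 nM FITC-labelled MLL peptide then binds for 60 min. IC50 fitted sigmoidally from mP values, duplicate wells.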
On the technique in general: Fluorescence polarisation rises when a labelled molecule tumbles more slowly, as on binding a larger partner.
With `CCN(C(=O)c1cc(F)ccc1-c1cc(N2CCN(C(=O)[C@@H]3CCCCN3)CC2)cn2c(C)ncc12)C(C)C` [Example 81], the IC50 came to 188 nM.

In turn, `CC[C@H](C)[C@H](NC)C(=O)N1CC(c2cc(-c3ccc(F)cc3C(=O)N(CC)C(C)C)c3c(F)nc(C)n3c2)C1` [Example 316] yielded an IC50 of 99 nM.

Take `CNC(=O)[C@H]1CC[C@H](CN2CC(c3cc(-c4ccc(F)cc4C(=O)N4CCOC[C@H]4C)c4c(F)nc(C)n4c3)C2)CC1` [Example 237, (1r,4r)-4-{[3-(1-fluoro-8-{4-fluoro-2-[(3R)-3-methylmorpholin-4-carbonyl]phenyl}-3-methylimidazo[1,5-a]pyridin-6-yl)azacyclobutan-1-yl]methyl}-N-methylcyclohexan-1-formamide]: the IC50 turned out to be 34 nM.

The molecule `CCN(C(=O)c1cc(F)ccc1-c1cc(C2CCN(C[C@]3(O)CC[C@@H](NS(=O)(=O)CC)CC3)C2)cc2c1cnn2C)C(C)C` (stereo partly shown) [Compound 55, N-ethyl-5-fluoro-2-[1-methyl-6-(1-{[(1s,4s)-4-ethanesulfonamido-1-hydroxylcyclohexyl]methyl}pyrrolidin-3-yl)-1H-indazol-4-yl]-N-(isopropyl)benzamide] displayed an IC50 of 21 nM.

The assay is the same for the next values; noted with them: fluorescence polarization; 150 nM His-Menin, 15 nM FITC-MLL; 25°C for 60 min; read-out: Menin-MLL IC50.
For `CCN(C(=O)c1cc(F)ccc1-c1cc([C@H]2CCN(CC3(O)CCC(NS(=O)(=O)CC)CC3)C2)cc2c1cnn2C)C(C)C` (stereo partly drawn) [Compound 55-1-2, N-ethyl-5-fluoro-2-[1-methyl-6-[(3R)-1-{[(1r,4r)-4-ethanesulfonamido-1-hydroxylcyclohexyl]methyl}pyrrolidin-3-yl]-1H-indazol-4-yl]-N-(isopropyl)benzamide], the IC50 was determined as 120 nM.

On to `CC(=O)N1CC2CC(C1)N2CCC[C@H](C(C)C)N1CC(c2cc(-c3ccc(F)cc3C(=O)N3CCOC[C@H]3C)c3cnn(C)c3c2)C1` [Example 386], for which the IC50 was 20 nM.

As for `Cc1nc(F)c2c(-c3ccc(F)cc3C(=O)N3CCOC[C@H]3C)cc(C3CN([C@@H](CN4CCN(C(=O)OC(C)(C)C)CC4)C(C)C)C3)cn12` [Example 366-1, 4-[(2R)-2-[3-(1-fluoro-8-{4-fluoro-2-[(3R)-3-methylmorpholin-4-carbonyl]phenyl}-3-methylimidazo[1,5-a]pyridin-6-yl)azacyclobutan-1-yl]-3-methylbutyl]piperazin-1-tert-butyl carboxylate], the IC50 was found to be 1150 nM.

For the molecule `CCN(C(=O)c1cc(F)ccc1-c1cc(C2CN(C(C[C@@H]3CN(C(=O)OC(C)(C)C)CCO3)C(C)C)C2)cn2c(C)ncc12)C(C)C` (stereo partly drawn) [Example 461, (2R)-2-{2-[3-(8-{2-[ethyl(isopropyl)aminoformyl]-4-fluorophenyl}-3-methylimidazo[1,5-a]pyridin-6-yl)azacyclobutan-1-yl]-3-methylbutyl}morpholin-4-tert-butyl carboxylate], the concentration for half-maximal inhibition (IC50) came to 43 nM.

Turning to `CCNC(=O)N1CCC([C@H](C)N2CC(c3cc(-c4ccc(F)cc4C(=O)N(CC)C(C)C)c4c(F)nc(C)n4c3)C2)CC1` [Example 282-2, N-ethyl-4-[(1S)-1-[3-(8-{2-[ethyl(isopropyl)aminoformyl]-4-fluorophenyl}-1-fluoro-3-methylimidazo[1,5-a]pyridin-6-yl)azacyclobutan-1-yl]ethyl]piperidin-1-formamide], the IC50 stood at 1 nM.

As to `CCN(C(=O)c1cc(F)ccc1-c1cc(C2CN(C(C[C@@H]3CNCCO3)C(C)C)C2)cn2c(C)ncc12)C(C)C` (stereo partly drawn) [Example 462, N-ethyl-5-fluoro-2-[3-methyl-6-(1-{3-methyl-1-[(2R)-morpholin-2-yl]butan-2-yl}azacyclobutan-3-yl)imidazo[1,5-a]pyridin-8-yl]-N-(isopropyl)benzamide], the IC50 stood at 11 nM.

For the molecule `CCN(C(=O)c1cc(F)ccc1-c1cc(C2=CCC(NCc3ccc(-c4cc(OC)c(OC)nn4)cc3)CC2)n2ccncc12)C(C)C` (stereo not shown) [Example 4, 2-{6-[4-({[4-(5,6-dimethoxypyridazin-3-yl)phenyl]methyl}amino)cyclohexyl-1-ene-1-yl]pyrrolo[1,2-a]pyrazin-8-yl}-N-ethyl-5-fluoro-N-isopropylbenzamide], the IC50 is 17.5 nM.

In the case of `Cc1ncc2c(-c3ccc(F)cc3C(=O)N(CC(F)F)C(C)C)cc(N3CCN(C(=O)[C@@H]4CCC(c5cccc(F)c5)N4)CC3)cn12` (stereo partly drawn) [Example 140, N-(2,2-difluoroethyl)-5-fluoro-2-(6-{4-[(2S)-5-(3-fluorophenyl)pyrrolidin-2-carbonyl]piperazin-1-yl}-3-methylimidazo[1,5-a]pyridin-8-yl)-N-(isopropyl)benzamide], the IC50 was determined as 161 nM.

Consider `CCC(=O)N1CCN(CCC[C@H](C(C)C)N2CC(c3cc(-c4ccc(F)cc4C(=O)N4CCOC[C@H]4C)c4c(F)nc(C)n4c3)C2)CC1` [Example 335], for which the IC50 was determined as 8 nM.

As to `Cc1nc(F)c2c(-c3ccc(F)cc3C(=O)N3CCOC[C@H]3C)cc(C3CN(C[C@H]4CC[C@H](c5cnn(C)c5)CC4)C3)cn12` [Example 276-2, (3R)-4-{5-fluoro-2-[1-fluoro-3-methyl-6-(1-{[(1r,4r)-4-(1-methyl-1H-pyrazol-4-yl)cyclohexyl]methyl}azacyclobutan-3-yl)imidazo[1,5-a]pyridin-8yl]benzoyl}-3-methylmorpholine], the IC50 stood at 7 nM.

`C=C1CN[C@H](C(=O)N2CCC(c3cc(-c4ccc(F)cc4C(=O)N(CC(F)F)C(C)C)c4cnc(C)n4c3)CC2)C1` [Example 144]: the 50% inhibitory concentration (IC50) amounted to 51 nM.

In the case of `CCS(=O)(=O)N[C@@H]1CC[C@@H](CN2CC(c3cc(-c4ccc(F)cc4C(=O)N(CC(F)F)C(C)C)c4cnn(C)c4c3)C2)OC1` [Example 152, N-(2,2-difluoroethyl)-2-[6-(1-{[(2S,5R)-5-ethanesulfonamidooxacyclohexan-2-yl]methyl}azacyclobutan-3-yl)-1-methyl-1H-indazol-4-yl]-5-fluoro-N-(isopropyl)benzamide], the IC50 turned out to be 74.5 nM.

On to `CCS(=O)(=O)NC1CCC(CN2CCC(c3cc(-c4ccc(F)cc4C(=O)N4CCC(F)(F)CC4C)c4cnn(C)c4c3)C2)CC1` (stereo not shown) [Example 101, N-{4-[(3-{4-[2-(4,4-difluoro-2-methylpiperidin-1-carbonyl)-4-fluorophenyl]-1-methyl-1H-indazol-6-yl}pyrrolidin-1-yl)methyl]cyclohexyl}ethan-1-sulfonamide], for which the IC50 was found to be 45.5 nM.

With `CCN(C(=O)c1cc(F)ccc1-c1cc(C2CN([C@@H](CCCN3CCN(C)CC3)C(C)C)C2)cn2c(C)nnc12)C(C)C` [Example 360-2, N-ethyl-5-fluoro-2-(3-methyl-6-{1-[(3S)-2-methyl-6-(4-methylpiperazin-1-yl)hexan-3-yl]azacyclobutan-3-yl}-[1,2,4]triazolo[4,3-a]pyridin-8-yl)-N-(isopropyl)benzamide], the IC50 worked out at 2690 nM.

With `Cc1nc(F)c2c(-c3ccc(F)cc3C(=O)N3CCOC[C@H]3C)cc(C3CN([C@@H](C)C4CCN(C(=O)CC(F)F)CC4)C3)cn12` [Example 304], the IC50 amounted to 8 nM.

As to `COCC(C1CCOCC1)N1CC(c2cc(-c3ccc(F)cc3C(=O)N3CCOC[C@H]3C)c3cnc(C)n3c2)C1` (stereo partly shown) [Example 256], the IC50 was 189 nM.

Turning to `CC(C)N(CC(F)F)C(=O)c1cc(F)ccc1-c1cc(C2CCN(C[C@@H]3CC[C@@H](NC(=O)OC(C)(C)C)CO3)C2)cc2c1cnn2C` (stereo partly shown) [Example 158], the IC50 came to 165 nM.

With `CCN(C(=O)c1cc(F)ccc1-c1cc(C2CN([C@@H](CN3CCS(=O)(=O)CC3)C(C)C)C2)cn2c(C)ncc12)C(C)C` [Example 441-2, 2-(6-{1-[(2R)-1-(1,1-dioxo-thiomorpholin-4-yl)-3-methylbutan-2-yl]azacyclobutan-3-yl}-3-methylimidazo[1,5-a]pyridin-8-yl)-N-ethyl-5-fluoro-N-(isopropyl)benzamide], the IC50 was found to be 110 nM.

Regarding `Cc1nc(F)c2c(-c3ccc(F)cc3C(=O)N3CCOC[C@H]3C)cc(C3CN(C[C@H]4CC[C@H](c5ncno5)CC4)C3)cn12` [Example 207-1, (3R)-4-{5-fluoro-2-[1-fluoro-3-methyl-6-(1-{[(1r,4r)-4-(1,2,4-oxadiazol-5-yl)cyclohexyl]methyl}azacyclobutan-3-yl)imidazo[1,5-a]pyridin-8yl]benzoyl}-3-methylmorpholine], the IC50 turned out to be 111 nM.

Take `Cc1nc(F)c2c(-c3ccc(F)cc3C(=O)N3CCOC[C@H]3C)cc(C3CN([C@@H](CN4CCN(C)CC4)C(C)C)C3)cn12` [Example 368-1, (3R)-4-[5-fluoro-2-(1-fluoro-3-methyl-6-{1-[(2R)-3-methyl-1-(4-methylpiperazin-1-yl)butan-2-yl]azacyclobutan-3-yl}imidazo[1,5-a]pyridin-8-yl)benzoyl]-3-methylmorpholine]: the concentration for half-maximal inhibition (IC50) amounted to 23 nM.

On to `Cc1nc(F)c2c(-c3ccc(F)cc3C(=O)N3CCOC[C@H]3C)cc(C3CN(C(CC[C@@H]4COCCN4C)C(C)C)C3)cn12` (stereo partly drawn) [Example 372, (3R)-4-{5-fluoro-2-[1-fluoro-3-methyl-6-(1-{4-methyl-1-[(3R)-4-methylmorpholin-3-yl]pentan-3-yl}azacyclobutan-3-yl)imidazo[1,5-a]pyridin-8-yl]benzoyl}-3-methylmorpholine], for which the IC50 is 32 nM.
